Laboratory results published in US20090247520A1, “INHIBITORS OF ANTIGEN RECEPTOR-INDUCED NF-kappa B ACTIVATION” (The Burnham Institute for Medical Research, priority 2008, published 2009).
Entries after “also recorded” stand apart in the source; their conditions may differ.

Columns and labels:
[1] = system: caspase-8 p43/41 processing intermediate; experiment: Caspase-8 p43/41 processing in HEK293 cells after PMA/Ion; format: cell-based; settings: data not shown
Description: Caspase-8 plays an essential role in antigen receptor-mediated NF-κB activation. It was recently reported that MALT1 interacts with Caspase-8 and activates this protease upon antigen receptor activation. […] We then examined if CID-2858522 affected the pathway at this point. PMA induced significant MALT1-caspase-8 interaction in HEK293 cells over-expressing Flag-MALT1 and Caspase-8. […] The caspase-8 p43/41 processing intermediate was generated in HEK293 cells after PMA/Ion treatment. […] We then assessed the effects of CID-2858522 on PMA-induced proteolytic processing of c-FLIP, a Caspase-8-mediated event recently shown to be required for antigen receptor mediated NF-κB activation.

MDP (NOD2) induced IL-6 = experiment: IL-6 in THP.1 cell cultures stimulated with MDP; format: cell-based; settings: data not shown
Description: (§1) FIG. 1 is a flow chart of screening and counter-screenings for selective inhibitors of antigen-receptor induced NF-κB pathway. A total of 114,889 compounds were screened. From a screen of 53,280 commercially available compounds (left column), 519 hits were obtained, of which 248 reconfirmed using the same primary screening assay. […] From these 11 active compounds, one hit, CID-2858522, inhibited PMA/Ionomycin-induced production of cytokine IL-8 by the HEK293 cell line. CID-2858522 was then characterized (right column). PDB was substituted for PMA to confirm suppression of an alternative PKC activator. Pathway selectivity was assessed using panels of cell lines, starting with HEK293 cells in which each of the remaining NF-κB activation pathways was stimulated, showing inhibition only of PMA/Ionomycin-induced NF-κB reporter gene activity (panel 1). […]

[2] = system: LPS (TLR4 agonist) induced IL-6 production; experiment: IL-6 production by THP.1 monocytes stimulated with LPS; format: cell-based; settings: listed as CID-2858522
Description: as §1

353 protein kinases = experiment: KINOMEscan kinome screen, panel of 353 protein kinases; format: binding, human; settings: 10 μM, of 353 protein kinases surveyed
Description: CID-2858522 is not a potent protein kinase inhibitor. Protein kinases play critical roles in NF-κB activation. PKCs are proximal kinases in the NF-κB pathways activated by PMA/Ionomycin and by T- and B-cell antigen receptors, while the IKKs are distal kinases operating in the terminal segments of these and other NF-κB activation pathways. We therefore tested whether CID-2858522 inhibits members of these kinase families by in vitro kinase assays. For these experiments, we tested PKC-beta and PKC-theta (the PKC family members implicated in TCR/BCR signaling), and IKK-beta (a component of the IKK complex) (FIG. 6). […] In addition to assessing these three kinases by conventional in vitro kinase assays, a kinome screen was performed using a high throughput screening method, KINOMEscan™, which is an active-site dependent competition binding assay in which human kinases of interest are fused to a proprietary tag (Ambit). The amount of kinase bound to an immobilized, active-site directed ligand is measured in the presence and absence of the test compound. […] Thus, CID-2858522 inhibits none of the protein kinases previously implicated in regulating NF-κB.
In Vitro Kinase Assays. PKC-beta, PKC-theta and IKK-beta in vitro kinase assays were performed using the HTScan Kinase Assay Kit (Cell Signaling, Danvers, Mass.) according to manufacturer's protocols. […]

CLL B-cells = experiment: Cytotoxicity in CLL B-cells by ATP levels; format: cell-based, human; settings: time-frame analyzed
p65-DNA binding activity = p65-DNA binding activity in anti-IgM-stimulated CLL B-cells; format: cell-based; settings: human CLL B-cells
Protocol: (A) Isolated mouse primary splenocytes were cultured with anti-CD3/anti-CD28 (0.3 μg/mL each) or anti-IgM (3 μg/mL) for 48 h, then 1 μCi 3H-Thymidine was added for 12 h and incorporation into DNA was measured, expressing data as fold increase above unstimulated cells (mean±SD; n=3). (B-D) Primary splenocytes were pretreated for 2 h with IKK inhibitor, BMS-335541 (B), PKC inhibitor, Bisindolylmaleimide I (C) or CID-2858522 (D), then stimulated with anti-CD3/anti-CD28 (0.3 μg/mL) or anti-IgM (3 μg/mL) for 48 h. 1 μCi 3H-Thymidine was added for 12 h and incorporation into DNA was measured, expressing data as percent inhibition relative to control cells treated with DMSO (mean±SD; n=3). […] Levels of TRAF1 and β-actin were assessed by immunoblotting, quantified by densitometry and TRAF1 results reported relative to control cells, after normalization for β-actin (mean±SD). […] Then nuclear extracts were prepared and p65-DNA-binding activity was measured (mean±SD; n=3).
NF-κB DNA-binding activity assays. Nuclear extracts were prepared from 10 cm^2 plates of confluent cells using a kit (Active Motif, Carsbad, Calif.). The total protein content of nuclear fractions was quantified by the Bradford method, followed by storage at −80° C. […]

HEK293 cells = experiment: Cell viability assay (ATPlite), HEK293 cells; format: cell-based
Protocol: Cell viability assay. Cell viability was estimated based on cellular ATP levels, measured using ATPlite kit (Perkin Elmer). Cells at a density of 10^5/mL were seeded at 90 μL per well in 96-well white plates and cultured overnight. Compounds were added (5 μL in medium) to wells and cells were cultured for […], Finally, 50 μL ATPlite solution was added to each well and luminescence activity was read using a luminometer (LJL Biosystems, Sunnyvale, Calif.).

SMILES: CN(C)CCCn1cc(C2=C(c3c[nH]c4ccccc34)C(=O)NC2=O)c2ccccc21 [Bisindolylmaleimide I, reference compound]
- inhibition of caspase-8 p43/41 processing intermediate [1]: inhibited

SMILES: Cc1cc2nc(NCCCO)n(CC(=O)c3cc(C(C)(C)C)c(O)c(C(C)(C)C)c3)c2cc1C [Compound 1, 2-(2-(3-Hydroxypropylamino)-5,6-dimethyl-1H-benzo[d]imidazol-1-yl)-1-(3,5-di-tert-butyl-4-hydroxyphenyl)ethanone]
- inhibition of MDP-induced NF-κB (IL-6 in THP.1) (MDP (NOD2) induced IL-6): failed to inhibit
- suppression of IL-6 production, LPS-stimulated THP.1 [2]: failed to inhibit; also recorded: did not suppress
- number of protein kinases suppressed by >50% (353 protein kinases): 3
- cytotoxicity in CLL B-cells (CLL B-cells): not due to cytotoxicity
- suppression of anti-IgM-induced p65-DNA binding activity (p65-DNA binding activity): direct suppression
- concentrations not toxic to HEK293 cells (HEK293 cells): ≤ 8 µM
